Test results as given in BigSolDB 2.1.

O=C(O)COc1ccc(Cl)cc1
solubility (mole fraction)
Conditions | 283.15 K | 288.15 K | 293.15 K | 298.15 K | 303.15 K | 308.15 K | 313.15 K | 318.15 K | 323.15 K
in 1,4-dioxane | – | 0.113 | 0.124 | 0.135 | 0.146 | 0.16 | 0.176 | 0.194 | 0.212
in acetonitrile | 0.00781 | 0.00938 | 0.0114 | 0.0134 | 0.0159 | 0.0198 | 0.0241 | 0.0298 | 0.0359
in ethanol | 0.0308 | 0.0347 | 0.0406 | 0.0472 | 0.0545 | 0.0643 | 0.0796 | 0.0962 | 0.114
in ethyl acetate | 0.0266 | 0.0303 | 0.036 | 0.0413 | 0.0468 | 0.0537 | 0.0637 | 0.0731 | 0.0827
in ethyl formate | 0.0139 | 0.0164 | 0.0193 | 0.0223 | 0.0254 | 0.0299 | 0.036 | 0.0423 | 0.0487
in isobutanol | 0.0146 | 0.0178 | 0.0224 | 0.0286 | 0.0365 | 0.0453 | 0.0558 | 0.0688 | 0.0843
in isopropanol | 0.0214 | 0.0267 | 0.0324 | 0.039 | 0.0476 | 0.0586 | 0.0703 | 0.0844 | 0.0997
in methyl acetate | 0.0285 | 0.0325 | 0.0379 | 0.0433 | 0.0496 | 0.0567 | 0.0659 | 0.0766 | 0.0882
in n-butanol | 0.0243 | 0.0282 | 0.0343 | 0.0415 | 0.0501 | 0.0604 | 0.0721 | 0.0855 | 0.101
in n-butyl acetate | 0.0218 | 0.0246 | 0.0289 | 0.0334 | 0.0387 | 0.0446 | 0.0514 | 0.0593 | 0.0682
in n-propanol | 0.0255 | 0.0292 | 0.0348 | 0.0415 | 0.0506 | 0.0618 | 0.0748 | 0.089 | 0.11
in n-propyl acetate | 0.0235 | 0.0268 | 0.0303 | 0.035 | 0.0398 | 0.0454 | 0.0524 | 0.0604 | 0.0698
in sec-butanol | 0.0224 | 0.0279 | 0.034 | 0.0413 | 0.0505 | 0.0617 | 0.0745 | 0.0888 | 0.107
